In patent US8981106B2, “Pyrimidinecarboxamides as CXCR2 modulators” (Syntrix Biosystems, Inc., priority 2009, dated 2015) one finds IC50 data, which are given here for 56 molecules.

Structures are written as SMILES.

Chain of CXCR2 (P25025 whole entry): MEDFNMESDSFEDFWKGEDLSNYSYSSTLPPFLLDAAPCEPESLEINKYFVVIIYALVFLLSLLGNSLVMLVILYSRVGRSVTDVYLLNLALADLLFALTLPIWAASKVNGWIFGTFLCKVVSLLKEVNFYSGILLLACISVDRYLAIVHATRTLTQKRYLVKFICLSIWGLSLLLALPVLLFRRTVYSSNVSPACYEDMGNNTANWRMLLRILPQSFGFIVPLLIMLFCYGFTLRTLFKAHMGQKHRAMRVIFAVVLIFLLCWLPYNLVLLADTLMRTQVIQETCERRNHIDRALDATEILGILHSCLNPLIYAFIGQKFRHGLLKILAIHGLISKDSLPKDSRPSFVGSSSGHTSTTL

One experiment has as its target CXCR2 (Homo sapiens (Human), UniProt P25025). Briefly: Inhibition of GROα-mediated intracellular calcium release in human neutrophils (FLIPR-3 Ca2+ mobilization). The format is cell-based. The following applies: human neutrophils, 25 nM GROα; read-out: IC50. The procedure: In Tables 1-5, the IC50 or EC50 values were determined using the following assay. This assay measures intracellular calcium release via fluorescence as an indication of CXCR2 receptor activation by the physiologic agonist GROα. The assay is a Ca^2+ mobilization assay that measures changes in intracellular Ca^2+ with a FlexStation II scanning fluorometer using a FLIPR-3 Calcium Assay Kit (Molecular Devices, Sunnyvale, Calif.). The procedure is as follows:
1. Human neutrophils were suspended in HBSS^− (without Ca^2+ and Mg^2+) containing 10 mM HEPES and FLIPR Calcium 3 dye (3.1×10^7 cells in total volume 1.7 mL).
2. […] As controls, 2 μL of DMSO (1% final concentration) were added to other 2 tubes.
3. Cells were incubated for 30 min at 37° C.
4. After dye loading, tubes were centrifuged at 6,000 rpm for 1 min, supernatant was removed and cell pellet was re-suspended in 200 μL of HBSS^+ (with Ca^2+ and Mg^2+) containing 10 mM HEPES.
5. The compound or DMSO (control) was added again at the same concentrations that were used during cell loading.
6. The cell suspension was aliquoted into a 96-well Reading Plate (Corning) in a volume of 90 μL (10^5 cells/well). The Compound Plate contained physiologic agonist (GROα in HBSS^−) or HBSS^− (control).
9. The maximum change in fluorescence, expressed in arbitrary units over baseline (Max-Min) was used to determine the GROα response. […] Therapeutic Activity
Briefly, human neutrophils were suspended in HBSS^− (without Ca^2+ and Mg^2+) containing 10 mM HEPES and FLIPR Calcium 3 dye (3.1×10^7 cells in total volume 1.7 mL). […] As controls, 2 μL of DMSO (1% final concentration) were added to 2 other tubes. Cells were incubated for 30 min at 37° C. After dye loading, tubes were centrifuged at 6,000 rpm for 1 min, supernatant was removed and the cell pellet was re-suspended in 200 μL of HBSS^+ (with Ca^2+ and Mg^2+) containing 10 mM HEPES. The test compound or DMSO (control) was added again at the same concentrations that were used during cell loading. The cell suspension was aliquoted into a 96-well Reading Plate (Corning) in a volume of 90 μL (10^5 cells/well). The Compound Plate contained agonist (GROα in HBSS^−) or HBSS^− (control).
The maximum change in fluorescence, expressed in arbitrary units over baseline (Max-Min), was used to determine the GROα response.
`Cc1nc(-c2ccccc2)sc1CSc1ccc(C(=O)Nc2ccc(F)cc2)cn1` [Compound 70]: the IC50 came to 1.21 ± 0.39 µM. With `Cc1nc(-c2ccc(C(F)(F)F)cc2)sc1CSc1ccc(C(=O)Nc2ccc(F)cc2)cn1` [Compound 71], the half-inhibitory concentration (IC50) is more than 10 µM. For the molecule `O=C(Nc1ccc(F)cc1)c1ccc(SCCOc2ccccc2)nc1` [Compound 72], the IC50 was more than 10 µM. Same read-out and setting: the figure for `O=C(Nc1ccc(F)cc1)c1ccc(SCc2ccc(C(F)(F)F)o2)nc1` [Compound 74] is more than 5 µM; for `O=C(Nc1ccc(F)cc1)c1ccc(SCc2ccc([N+](=O)[O-])o2)nc1` [Compound 75] it is more than 5 µM; for `O=C(Nc1ccc(F)cc1)c1ccc(SCC2CCCO2)nc1` (centres unmarked) [Compound 76] it is 0.542 ± 0.104 µM. Take `O=C(Nc1ccc(F)cc1)c1ccc(SCC2CCOCC2)nc1` [Compound 77]: the IC50 is more than 10 µM.

With `O=C(Nc1ccc(F)cc1)c1ccc(SCC2CCCCO2)nc1` (centres unmarked) [Compound 78], the IC50 was more than 5 µM. On the same count and under the same terms, the figure for `O=C(Nc1ccc(F)cc1)c1ccc(SCc2cc3ccccc3n2S(=O)(=O)c2ccccc2)nc1` [Compound 79] is more than 5 µM; for `CCOP(=O)(CSc1ccc(C(=O)Nc2ccc(F)cc2)cn1)OCC` [Compound 82] it is more than 10 µM; for `O=C(Nc1ccc(F)cc1)c1ccc(SCS(=O)(=O)c2ccccc2)nc1` [Compound 83] it is more than 5 µM. The same measure, in the same setting: the figure for `O=C(Nc1ccc(F)cc1)c1ccc(SC[N+](=O)[O-])nc1` [Compound 84] is more than 10 µM; for `Cc1ccc(C(=O)CSc2ccc(C(=O)Nc3ccc(F)cc3)cn2)cc1` [Compound 85] it is more than 10 µM; for `O=C(CSc1ccc(C(=O)Nc2ccc(F)cc2)cn1)c1ccc(C(F)(F)F)cc1` [Compound 86] it is more than 10 µM. For the molecule `Cc1ccc(C(=O)CSc2ccc(C(=O)Nc3ccc(F)cc3)cn2)c(C)c1` [Compound 87], the IC50 was more than 5 µM.

As to `O=C(CSc1ccc(C(=O)Nc2ccc(F)cc2)cn1)c1ccc(Br)cc1` [Compound 88], the IC50 was more than 10 µM. Turning to `O=C(CSc1ccc(C(=O)Nc2ccc(F)cc2)cn1)c1cccc(Br)c1` [Compound 89], the IC50 was 0.852 ± 0.292 µM. For `O=C(CSc1ccc(C(=O)Nc2ccc(F)cc2)cn1)c1cccc(Cl)c1` [Compound 90], the IC50 was found to be 0.21 ± 0.19 µM. `O=C(CSc1ccc(C(=O)Nc2ccc(F)cc2)cn1)c1cccc(F)c1` [Compound 91]: the IC50 is more than 10 µM. On to `Cc1cc(C(=O)CSc2ccc(C(=O)Nc3ccc(F)cc3)cn2)ccc1Cl` [Compound 92], for which the IC50 was more than 5 µM.

In the case of `O=C(CSc1ccc(C(=O)Nc2ccc(F)cc2)cn1)c1ccc(Cl)c([N+](=O)[O-])c1` [Compound 94], the IC50 worked out at 0.016 µM. In the case of `O=C(CSc1ccc(C(=O)Nc2ccc(F)cc2)cn1)c1ccc(F)c(F)c1` [Compound 95], the IC50 is more than 5 µM. As for `CC(C)(C)c1cc(C(=O)CSc2ccc(C(=O)Nc3ccc(F)cc3)cn2)cc(C(C)(C)C)c1O` [Compound 96], the IC50 is more than 10 µM. Turning to `CCCCCc1ccc(C(=O)CSc2ccc(C(=O)Nc3ccc(F)cc3)cn2)cc1` [Compound 97], the IC50 is more than 10 µM. Same read-out and setting: the figure for `O=C(CSc1ccc(C(=O)Nc2ccc(F)cc2)cn1)c1ccc(-c2cccs2)cc1` [Compound 98] is more than 10 µM. With `O=C(CSc1ccc(C(=O)Nc2ccc(F)cc2)cn1)c1ccc(N2CCOCC2)cc1` [Compound 99], the IC50 is more than 5 µM. On to `COc1ccc(C(=O)CSc2ccc(C(=O)Nc3ccc(F)cc3)cn2)cc1` [Compound 100], for which the IC50 is more than 10 µM. Same read-out and setting: the figure for `N#Cc1ccc(C(=O)CSc2ccc(C(=O)Nc3ccc(F)cc3)cn2)cc1` [Compound 102] is more than 10 µM. Turning to `N#Cc1cccc(C(=O)CSc2ccc(C(=O)Nc3ccc(F)cc3)cn2)c1` [Compound 103], the IC50 is more than 5 µM. For the molecule `O=C(CSc1ccc(C(=O)Nc2ccc(F)cc2)cn1)c1ccc(-c2nn[nH]n2)cc1` [Compound 104], the IC50 is 1.15 ± 0.47 µM. On to `CS(=O)(=O)c1ccc(C(=O)CSc2ccc(C(=O)Nc3ccc(F)cc3)cn2)cc1` [Compound 105], for which the concentration for half-maximal inhibition (IC50) is more than 10 µM. For `O=C(CSc1ccc(C(=O)Nc2ccc(F)cc2)cn1)c1ccc(OC(F)(F)F)cc1` [Compound 106], the 50% inhibitory concentration (IC50) was more than 10 µM.

For the molecule `O=C(CSc1ccc(C(=O)Nc2ccc(F)cc2)cn1)c1ccc(OC(F)F)cc1` [Compound 107], the IC50 was more than 10 µM.

Take `O=C(Nc1ccc(F)cc1)c1ccc(SCC(=O)c2ccccc2C(F)(F)F)nc1` [Compound 108]: the IC50 is more than 10 µM. On to `O=C(CSc1ccc(C(=O)Nc2ccc(F)cc2)cn1)c1cccc(C(F)(F)F)c1` [Compound 109], for which the IC50 is more than 10 µM. Turning to `O=C(CSc1ccc(C(=O)Nc2ccc(F)cc2)cn1)c1cc(C(F)(F)F)cc(C(F)(F)F)c1` [Compound 110], the IC50 is more than 10 µM.

Consider `CC1(C)CCC(C)(C)c2cc(C(=O)CSc3ccc(C(=O)Nc4ccc(F)cc4)cn3)ccc21` [Compound 111], for which the IC50 was more than 5 µM. For the molecule `CCc1cc2c(cc1C(=O)CSc1ccc(C(=O)Nc3ccc(F)cc3)cn1)C(C)(C)CCC2(C)C` [Compound 112], the IC50 was determined as 3.69 ± 0.72 µM. For `O=C(Nc1ccc(F)cc1)c1ccc(SCC(=O)c2ccccn2)nc1` [Compound 113], the IC50 was more than 10 µM. On to `O=C(CSc1ccc(C(=O)Nc2ccc(F)cc2)cn1)c1cccnc1` [Compound 114], for which the IC50 is more than 5 µM. Consider `O=C(CSc1ccc(C(=O)Nc2ccc(F)cc2)cn1)c1ccncc1` [Compound 115], for which the half-inhibitory concentration (IC50) is more than 10 µM. Consider `O=C(CSc1ccc(C(=O)Nc2ccc(F)cc2)cn1)c1ccc2occc2c1` [Compound 117], for which the half-maximal inhibitory concentration (IC50) was more than 5 µM. In the case of `O=C(Nc1ccc(F)cc1)c1ccc(SCC(=O)c2coc3ccccc23)nc1` [Compound 118], the concentration for half-maximal inhibition (IC50) is more than 10 µM.

In the case of `O=C(Nc1ccc(F)cc1)c1ccc(SCC(=O)c2cc3ccc(Br)cc3o2)nc1` [Compound 119], the IC50 stood at 0.981 ± 0.29 µM. `O=C(Nc1ccc(F)cc1)c1ccc(SCC(=O)c2cc3ccccc3o2)nc1` [Compound 120]: the IC50 is more than 10 µM.

As to `O=C(CSc1ccc(C(=O)Nc2ccc(F)cc2)cn1)c1ccsc1` [Compound 121], the IC50 is more than 10 µM. Still for that read-out and setting: the figure for `O=C(Nc1ccc(F)cc1)c1ccc(SCC(=O)c2cccs2)nc1` [Compound 122] is more than 5 µM.

For the molecule `O=C(Nc1ccc(F)cc1)c1ccc(SCC(=O)c2ccc(-c3ccccc3)s2)nc1` [Compound 123], the IC50 was more than 10 µM.

For the molecule `O=C(Nc1ccc(F)cc1)c1ccc(SCC(=O)c2ccc(-c3ccccn3)s2)nc1` [Compound 124], the IC50 is more than 10 µM. On to `O=C(CSc1ccc(C(=O)Nc2ccc(F)cc2)cn1)c1ccc2sccc2c1` [Compound 125], for which the IC50 is more than 10 µM.

Turning to `O=C(Nc1ccc(F)cc1)c1ccc(SCC(=O)c2csc3ccccc23)nc1` [Compound 126], the IC50 is more than 5 µM. Regarding `O=C(Nc1ccc(F)cc1)c1ccc(SCC(=O)c2csc3ccc(Br)cc23)nc1` [Compound 127], the IC50 came out at 1.25 ± 0.32 µM. In the case of `O=C(Nc1ccc(F)cc1)c1ccc(SCC(=O)c2cc3ccccc3s2)nc1` [Compound 128], the half-maximal inhibitory concentration (IC50) was 1.81 ± 0.52 µM.

Still in this experiment, the particulars now being: read-out: IC50.
For `O=C(CSc1ccc(C(=O)Nc2ccc(F)cc2)cn1)c1ccc(Cl)c(Cl)c1` [Compound 93], the IC50 came to 1.85 ± 0.55 µM. As to `O=C(CSc1ccc(C(=O)Nc2ccc(F)cc2)cn1)c1ccc([N+](=O)[O-])cc1` [Compound 101], the IC50 was more than 10 µM.

Turning to `O=C(Nc1ccc(F)cc1)c1ccc(SCC(=O)c2ccco2)nc1` [Compound 116], the half-inhibitory concentration (IC50) is more than 10 µM.
